Data set [1] has as its system major crops (wheat, corn, rice, soybean, cotton, oilseed rape, millet, sorghum). The data set is described as follows: Experiment on weeding effect in post-emergence stage (crops). The data set is classed as in vivo. As to conditions: 600 g/ha active ingredient plus water 450 kg/ha, 3 weeks after application; for corn plant damage level (growth control rate): crop corn; for rice plant damage level (growth control rate): crop rice; for soybean plant damage level (growth control rate): crop soybean. As for the experimental part: (§1) The above growth control rates are fresh weight control rates.
(§2) (1) Experiment on weeding effect in post-emergence stage: monocotyledonous and dicotyledonous weed seeds and major crop seeds (wheat, corn, rice, soybean, cotton, oilseed rape, millet, sorghum) were placed in plastic pots filled with soil, then covered with 0.5-2 cm of soil, allowed to grow in a good greenhouse environment. After 2-3 weeks of sowing, the test plants were treated. The tested compounds of the present invention were respectively dissolved in acetone, then added with Tween 80, diluted with a certain amount of water to obtain a solution with a certain concentration, and sprayed with a spray tower onto the plants.

Data set [2] relates to monocotyledonous and dicotyledonous weeds. Description: Experiment on weeding effect in post-emergence stage (weeds). In kind it is in vivo. The note with it: 600 g/ha active ingredient plus water 450 kg/ha, 3 weeks after application, fresh weight control rate; for Amaranthus retroflexus activity level (growth control rate): fomesafen-resistant Amaranthus retroflexus.
Text: The activity level criteria for plant damage (i.e., growth control rate) are as follows: • Level 5: growth control rate is above 85%; • Level 4: growth control rate is greater than or equal to 60% and less than 85%; • Level 3: growth control rate is greater than or equal to 40% and less than 60%; • Level 2: growth control rate is greater than or equal to 20% and less than 40%; • Level 1: growth control rate is greater than or equal to […]; • Level 0: growth control rate is less than 5%.
as §1
as §2, with “plants. After the application, the plants were cultured for 3 weeks in the greenhouse, and then the experimental results of the weeding were listed in Table 2.” for “plants.”

`CC(C)N1C(=O)c2cc(F)cc(F)c2N(C(=O)N(C)C)S1(=O)=O` [Compound 223]: in data set [1], the “corn plant damage level (growth control rate)” value (“corn plant damage level” below) is 0 (Level 0: growth control rate is less than 5%) and the “rice plant damage level (growth control rate)” value (“rice plant damage level” below) is 0 (Level 0: growth control rate is less than 5%). Moreover, in data set [2], the “Amaranthus retroflexus activity level (growth control rate)” value (from here on “Amaranthus retroflexus activity level”) is recorded as 5 (Level 5: growth control rate is above 85%); the “Digitaria sanguinalis activity level (growth control rate)” value (from here on “Digitaria sanguinalis activity level”) is given as 5 (Level 5: growth control rate is above 85%); the “Echinochloa crus-galli activity level (growth control rate)” value (from here on “Echinochloa crus-galli activity level”) was 3 (Level 3: growth control rate is greater than or equal to 40% and less than 60%); the “Setaria viridis activity level (growth control rate)” value (shortened to “Setaria viridis activity level”) is 5 (Level 5: growth control rate is above 85%).

Consider `COCN1c2ccc(F)cc2C(=O)N(C(C)C)S1(=O)=O` [Compound 56], for which, in data set [1], the “corn plant damage level” value was 0 (Level 0: growth control rate is less than 5%), the “rice plant damage level” value is 0 (Level 0: growth control rate is less than 5%) and the “soybean plant damage level (growth control rate)” value (from here on “soybean plant damage level”) is on record as 0 (Level 0: growth control rate is less than 5%). In addition, in data set [2], the “Amaranthus retroflexus activity level” value was 3 (Level 3: growth control rate is greater than or equal to 40% and less than 60%).

As to `CC(C)N1C(=O)c2cc(F)cc(I)c2NS1(=O)=O` [Compound 145], in data set [1], the “corn plant damage level” value is 1 (Level 1: growth control rate is greater than or equal to 500 and less than 200%); the “rice plant damage level” value was 0 (Level 0: growth control rate is less than 5%); the “soybean plant damage level” value is 0 (Level 0: growth control rate is less than 5%). Moreover, in data set [2], the “Amaranthus retroflexus activity level” value was 4 (Level 4: growth control rate is greater than or equal to 60% and less than 85%); the “Digitaria sanguinalis activity level” value was 4 (Level 4: growth control rate is greater than or equal to 60% and less than 85%); the “Echinochloa crus-galli activity level” value was 4 (Level 4: growth control rate is greater than or equal to 60% and less than 85%); the “Setaria viridis activity level” value was 5 (Level 5: growth control rate is above 85%).

In the case of `CCCS(=O)(=O)N1c2c(F)cc(F)cc2C(=O)N(C(C)C)S1(=O)=O` [Compound 229], in data set [1], the “corn plant damage level” value was 1 (Level 1: growth control rate is greater than or equal to 500 and less than 200%). Further, the “Amaranthus retroflexus activity level” value in data set [2] was 3 (Level 3: growth control rate is greater than or equal to 40% and less than 60%).

As to `C=CC(=O)N1c2ccc(F)cc2C(=O)N(C(C)C)S1(=O)=O` [Compound 183], in data set [1], the “corn plant damage level” value is 0 (Level 0: growth control rate is less than 5%), the “rice plant damage level” value is 0 (Level 0: growth control rate is less than 5%) and the “soybean plant damage level” value is listed as 0 (Level 0: growth control rate is less than 5%). Also, the “Amaranthus retroflexus activity level” value in data set [2] is 3 (Level 3: growth control rate is greater than or equal to 40% and less than 60%).

For the molecule `CC(C)N1C(=O)c2cc(Br)ccc2NS1(=O)=O` [B, reference compound], in data set [1], the “corn plant damage level” value is listed as 0 (Level 0: growth control rate is less than 5%), the “rice plant damage level” value is recorded as 0 (Level 0: growth control rate is less than 5%) and the “soybean plant damage level” value was 0 (Level 0: growth control rate is less than 5%). Moreover, in data set [2], the “Amaranthus retroflexus activity level” value is 1 (Level 1: growth control rate is greater than or equal to 500 and less than 200%); the “Digitaria sanguinalis activity level” value is recorded as 0 (Level 0: growth control rate is less than 5%); the “Echinochloa crus-galli activity level” value is listed as 0 (Level 0: growth control rate is less than 5%); the “Setaria viridis activity level” value is on record as 0 (Level 0: growth control rate is less than 5%).

In the case of `CCC(C)N1C(=O)c2cc(F)ccc2NS1(=O)=O` (stereo not shown) [Compound 161], in data set [1], the “corn plant damage level” value was 0 (Level 0: growth control rate is less than 5%); the “rice plant damage level” value was 1 (Level 1: growth control rate is greater than or equal to 500 and less than 200%); the “soybean plant damage level” value is on record as 0 (Level 0: growth control rate is less than 5%). Further, the “Setaria viridis activity level” value in data set [2] was 3 (Level 3: growth control rate is greater than or equal to 40% and less than 60%).

On to `CC(=O)N1c2c(Cl)cc(F)cc2C(=O)N(C(C)C)S1(=O)=O` [Compound 152], for which, in data set [1], the “corn plant damage level” value is 0 (Level 0: growth control rate is less than 5%); the “rice plant damage level” value is given as 0 (Level 0: growth control rate is less than 5%); the “soybean plant damage level” value was 1 (Level 1: growth control rate is greater than or equal to 500 and less than 200%). Moreover, in data set [2], the “Amaranthus retroflexus activity level” value is on record as 5 (Level 5: growth control rate is above 85%), the “Digitaria sanguinalis activity level” value is given as 5 (Level 5: growth control rate is above 85%), the “Echinochloa crus-galli activity level” value is listed as 5 (Level 5: growth control rate is above 85%) and the “Setaria viridis activity level” value is listed as 5 (Level 5: growth control rate is above 85%).

For `CC(C)N1C(=O)c2cc(F)cc(Br)c2NS1(=O)=O` [Compound 143], in data set [1], the “corn plant damage level” value is 1 (Level 1: growth control rate is greater than or equal to 500 and less than 200%); the “rice plant damage level” value is recorded as 0 (Level 0: growth control rate is less than 5%); the “soybean plant damage level” value is 1 (Level 1: growth control rate is greater than or equal to 500 and less than 200%). For the same molecule, in data set [2], the “Amaranthus retroflexus activity level” value was 5 (Level 5: growth control rate is above 85%); the “Digitaria sanguinalis activity level” value is 5 (Level 5: growth control rate is above 85%); the “Echinochloa crus-galli activity level” value was 4 (Level 4: growth control rate is greater than or equal to 60% and less than 85%); the “Setaria viridis activity level” value is on record as 5 (Level 5: growth control rate is above 85%).

For `CC(C)N1C(=O)c2cc(I)ccc2NS1(=O)=O` [C, reference compound], in data set [1], the “corn plant damage level” value is recorded as 0 (Level 0: growth control rate is less than 5%), the “rice plant damage level” value is 0 (Level 0: growth control rate is less than 5%) and the “soybean plant damage level” value was 0 (Level 0: growth control rate is less than 5%). Besides, in data set [2], the “Amaranthus retroflexus activity level” value is given as 0 (Level 0: growth control rate is less than 5%), the “Digitaria sanguinalis activity level” value was 0 (Level 0: growth control rate is less than 5%), the “Echinochloa crus-galli activity level” value is reported as 0 (Level 0: growth control rate is less than 5%) and the “Setaria viridis activity level” value is listed as 0 (Level 0: growth control rate is less than 5%).

With `CC(C)C(=O)N1c2c(F)cc(F)cc2C(=O)N(C(C)C)S1(=O)=O` [Compound 215], in data set [1], the “corn plant damage level” value is 1 (Level 1: growth control rate is greater than or equal to 500 and less than 200%). Also, in data set [2], the “Amaranthus retroflexus activity level” value is 5 (Level 5: growth control rate is above 85%), the “Digitaria sanguinalis activity level” value is 5 (Level 5: growth control rate is above 85%), the “Echinochloa crus-galli activity level” value was 5 (Level 5: growth control rate is above 85%) and the “Setaria viridis activity level” value is 5 (Level 5: growth control rate is above 85%).

For the molecule `CC(C)N1C(=O)c2ccccc2NS1(=O)=O` [G, reference compound], in data set [1], the “corn plant damage level” value is listed as 0 (Level 0: growth control rate is less than 5%); the “rice plant damage level” value was 1 (Level 1: growth control rate is greater than or equal to 500 and less than 200%); the “soybean plant damage level” value was 1 (Level 1: growth control rate is greater than or equal to 500 and less than 200%). Further, in data set [2], the “Amaranthus retroflexus activity level” value was 1 (Level 1: growth control rate is greater than or equal to 500 and less than 200%); the “Digitaria sanguinalis activity level” value is listed as 0 (Level 0: growth control rate is less than 5%); the “Echinochloa crus-galli activity level” value is 0 (Level 0: growth control rate is less than 5%); the “Setaria viridis activity level” value was 1 (Level 1: growth control rate is greater than or equal to 500 and less than 200%).
